Tests used:
Type in all cases: ADME, organism-based
[1] = test system: Mus musculus; assay: In vivo biodistribution of radiolabeled [99mTc]N4IPA in mice lung bearing S180 tumor cell line for 8 hours; conditions: ccrf s-180, 8 h
[2] = test system: Mus musculus; assay: In vivo biodistribution of radiolabeled [99mTc]-N4IPA in mice tumor/heart bearing S180 tumor cell line for 30 minutes; conditions: ccrf s-180, 0.5 h
[3] = test system: Mus musculus; assay: In vivo biodistribution of radiolabeled [99mTc]-N4IPA in mice brain bearing S180 tumor cell line for 1 hour; conditions: ccrf s-180, 1 h
[4] = test system: Mus musculus; assay: In vivo biodistribution of radiolabeled [99mTc]-N4IPA in mice tumor bearing S180 tumor cell line for 30 minutes; conditions: ccrf s-180, 0.5 h
[5] = test system: Mus musculus; assay: In vivo biodistribution of radiolabeled [99mTc]-N4IPA in mice blood bearing S180 tumor cell line for 8 hours; conditions: ccrf s-180, 8 h
[6] = test system: Mus musculus; assay: In vivo biodistribution of radiolabeled [99mTc]-N4IPA in mice liver bearing S180 tumor cell line for 4 hours; conditions: ccrf s-180, 4 h
[7] = test system: Mus musculus; assay: In vivo biodistribution of radiolabeled [99mTc]N4IPA in mice brain bearing S180 tumor cell line for 2 hours; conditions: ccrf s-180, 2 h
[8] = test system: Mus musculus; assay: In vivo biodistribution of radiolabeled [99mTc]-N4IPA in mice tumor/liver bearing S180 tumor cell line for 8 hours; conditions: ccrf s-180, 8 h
[9] = test system: Mus musculus; assay: In vivo biodistribution of radiolabeled [99mTc]N4IPA in mice brain bearing S180 tumor cell line for 4 hours; conditions: ccrf s-180, 4 h
[10] = test system: Mus musculus; assay: In vivo biodistribution of radiolabeled [99mTc]-N4IPA in mice tumor/lung bearing S180 tumor cell line for 30 minutes; conditions: ccrf s-180, 0.5 h
[11] = test system: Mus musculus; assay: In vivo biodistribution of radiolabeled [99mTc]N4IPA in mice tumor/muscle bearing S180 tumor cell line for 30 minutes; conditions: ccrf s-180, 0.5 h
[12] = test system: Mus musculus; assay: In vivo biodistribution of radiolabeled [99mTc]N4IPA in mice tumor bearing S180 tumor cell line for 8 hours; conditions: ccrf s-180, 8 h
[13] = test system: Mus musculus; assay: In vivo biodistribution of radiolabeled [99mTc]-N4IPA in mice tumor/heart bearing S180 tumor cell line for 4 hours; conditions: ccrf s-180, 4 h
[14] = test system: Mus musculus; assay: In vivo biodistribution of radiolabeled [99mTc]-N4IPA in mice muscle bearing S180 tumor cell line for 4 hours; conditions: ccrf s-180, 4 h
[15] = test system: Mus musculus; assay: In vivo biodistribution of radiolabeled [99mTc]N4IPA in mice tumor/heart bearing S180 tumor cell line for 2 hours; conditions: ccrf s-180, 2 h
[16] = test system: Mus musculus; assay: In vivo biodistribution of radiolabeled [99mTc]N4IPA in mice lung bearing S180 tumor cell line for 30 minutes; conditions: ccrf s-180, 0.5 h
[17] = test system: Mus musculus; assay: In vivo biodistribution of radiolabeled [99mTc]N4IPA in mice tumor/blood bearing S180 tumor cell line for 4 hours; conditions: ccrf s-180, 4 h
[18] = test system: Mus musculus; assay: In vivo biodistribution of radiolabeled [99mTc]N4IPA in mice tumor/liver bearing S180 tumor cell line for 2 hours; conditions: ccrf s-180, 2 h
[19] = test system: Mus musculus; assay: In vivo biodistribution of radiolabeled [99mTc]N4IPA in mice tumor bearing S180 tumor cell line for 2 hours; conditions: ccrf s-180, 2 h
[20] = test system: Mus musculus; assay: In vivo biodistribution of radiolabeled [99mTc]-N4IPA in mice muscle bearing S180 tumor cell line for 1 hour; conditions: ccrf s-180, 1 h
[21] = test system: Mus musculus; assay: In vivo biodistribution of radiolabeled [99mTc]-N4IPA in mice heart bearing S180 tumor cell line for 30 minutes; conditions: ccrf s-180, 0.5 h
[22] = test system: Mus musculus; assay: In vivo biodistribution of radiolabeled [99mTc]-N4IPA in mice liver bearing S180 tumor cell line for 30 minutes; conditions: ccrf s-180, 0.5 h
[23] = test system: Mus musculus; assay: In vivo biodistribution of radiolabeled [99mTc]N4IPA in mice tumor/muscle bearing S180 tumor cell line for 8 hours; conditions: ccrf s-180, 8 h
[24] = test system: Mus musculus; assay: In vivo biodistribution of radiolabeled [99mTc]-N4IPA in mice tumor/lung bearing S180 tumor cell line for 4 hours; conditions: ccrf s-180, 4 h
[25] = test system: Mus musculus; assay: In vivo biodistribution of radiolabeled [99mTc]N4IPA in mice liver bearing S180 tumor cell line for 1 hour; conditions: ccrf s-180, 1 h
[26] = test system: Mus musculus; assay: In vivo biodistribution of radiolabeled [99mTc]N4IPA in mice tumor/blood bearing S180 tumor cell line for 30 minutes; conditions: ccrf s-180, 0.5 h
[27] = test system: Mus musculus; assay: In vivo biodistribution of radiolabeled [99mTc]N4IPA in mice kidney bearing S180 tumor cell line for 1 hour; conditions: ccrf s-180, 1 h
[28] = test system: Mus musculus; assay: In vivo biodistribution of radiolabeled [99mTc]-N4IPA in mice heart bearing S180 tumor cell line for 1 hour; conditions: ccrf s-180, 1 h
[29] = test system: Mus musculus; assay: In vivo biodistribution of radiolabeled [99mTc]-N4IPA in mice spleen bearing S180 tumor cell line for 2 hours; conditions: ccrf s-180, 2 h
[30] = test system: Mus musculus; assay: In vivo biodistribution of radiolabeled [99mTc]N4IPA in mice tumor/blood bearing S180 tumor cell line for 1 hour; conditions: ccrf s-180, 1 h
[31] = test system: Mus musculus; assay: In vivo biodistribution of radiolabeled [99mTc]-N4IPA in mice lung bearing S180 tumor cell line for 2 hours; conditions: ccrf s-180, 2 h
[32] = test system: Mus musculus; assay: In vivo biodistribution of radiolabeled [99mTc]-N4IPA in mice lung bearing S180 tumor cell line for 4 hours; conditions: ccrf s-180, 4 h
[33] = test system: Mus musculus; assay: In vivo biodistribution of radiolabeled [99mTc]-N4IPA in mice muscle bearing S180 tumor cell line for 8 hours; conditions: ccrf s-180, 8 h
[34] = test system: Mus musculus; assay: In vivo biodistribution of radiolabeled [99mTc]N4IPA in mice brain bearing S180 tumor cell line for 30 minutes; conditions: ccrf s-180, 0.5 h
[35] = test system: Mus musculus; assay: In vivo biodistribution of radiolabeled [99mTc]N4IPA in mice liver bearing S180 tumor cell line for 2 hours; conditions: ccrf s-180, 2 h

With `N/C(CCn1cnc([N+](=O)[O-])c1)=N\O` the Biodistribution [1] was 0.1 % g-1, the Biodistribution [2] was 2.31 % g-1 and the Biodistribution [3] was 0.04 % g-1. The Biodistribution [4] was 0.55 % g-1, the Biodistribution [5] was 0.15 % g-1 and the Biodistribution [6] was 0.39 % g-1. For the same molecule, the Biodistribution [7] was 0.04 % g-1, the Biodistribution [8] was 1.41 % g-1 and the Biodistribution [9] was 0.04 % g-1. The Biodistribution [10] was 1.42 % g-1, the Biodistribution [11] was 3.66 % g-1 and the Biodistribution [12] was 0.32 % g-1. The Biodistribution [13] was 4.47 % g-1, the Biodistribution [14] was 0.04 % g-1 and the Biodistribution [15] was 3.39 % g-1. The Biodistribution [16] was 0.39 % g-1, the Biodistribution [17] was 1.88 % g-1 and the Biodistribution [18] was 0.85 % g-1. It also gave a Biodistribution [19] of 0.39 % g-1, a Biodistribution [20] of 0.11 % g-1 and a Biodistribution [21] of 0.24 % g-1. For the same molecule, the Biodistribution [22] was 0.98 % g-1, the Biodistribution [23] was 8.83 % g-1 and the Biodistribution [24] was 2.94 % g-1. The Biodistribution [25] was 0.79 % g-1, the Biodistribution [26] was 0.78 % g-1 and the Biodistribution [27] was 5.44 % g-1. For the same molecule, the Biodistribution [28] was 0.14 % g-1, the Biodistribution [29] was 0.09 % g-1 and the Biodistribution [30] was 1.19 % g-1. The Biodistribution [31] was 0.17 % g-1, the Biodistribution [32] was 0.12 % g-1 and the Biodistribution [33] was 0.04 % g-1. The Biodistribution [34] was 0.04 % g-1 and the Biodistribution [35] was 0.46 % g-1.

Reference: ChEMBL document CHEMBL1147434, “Synthesis and biological results of the technetium-99m-labeled 4-nitroimidazole for imaging tumor hypoxia” (Bioorg Med Chem Lett, 2004)
